This note sets out measurements from ChEMBL document CHEMBL1201862, “PubChem BioAssay data set” (2004).

Among the test systems are OVCAR-5; PC-3; SNB-75; HCT-116; UACC-62; SF-539; SF-268; HT-29; T47D; A498; NCI-H460; 786-0; MCF7; MDA-MB-231; Hs-578T; K562; OVCAR-3; IGROV-1; DU-145; CCRF-CEM.
Holding throughout (assay): growth of human tumour cells (NCI), 48 h

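Step 1: Grow cells in 96-well plates. Step 2: Expose to compound for 48 hours at 5 concentrations. Step 3: Interpolate endpoints linearly; if unreached, use highest concentration. Abbreviation: GI50, concentration required for 50% inhibition of growth.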 Calls of active or inactive are those of the source. No stated cut-off is given here; in the data, active = GI50 up to about 1.1 µM and inactive = higher. Bounds are passed on as bounds.

With `O=c1c2cccnc2[nH]c2ccc3[nH]ncc3c12`, the GI50 with OVCAR-5 was > 10 µM (inactive); in the assay with PC-3, > 10 µM (inactive); in the assay with SNB-75 it was > 10 µM (inactive); in the assay on HCT-116, 7.91 µM (inactive); with UACC-62, > 10 µM (inactive); with SF-539 it was > 10 µM (inactive). Further, the GI50 with SF-268 is > 10 µM (inactive); in the assay with HT-29 it was > 10 µM (inactive); in the assay on T47D it was > 10 µM (inactive); with A498 it was 8.49 µM (inactive); with NCI-H460, > 10 µM (inactive); in the assay on 786-0 it was > 10 µM (inactive). Also, the GI50 with MCF7 was > 10 µM (inactive); in the assay with MDA-MB-231 it was > 10 µM (inactive); with Hs-578T it was > 10 µM (inactive); with K562, > 10 µM (inactive); in the assay with OVCAR-3, > 10 µM (inactive); in the assay on IGROV-1, 6.11 µM (inactive). The GI50 in the assay with DU-145 and with CCRF-CEM was > 10 µM (inactive) throughout.
Consider `COc1ccc(OC)c(CSc2ccc(OC)c(OC)c2)c1`, for which the GI50 in the assay with OVCAR-5 was > 100 µM (inactive); in the assay on PC-3, > 79.8 µM (inactive); in the assay on SNB-75 it was 57.1 µM (inactive); in the assay on HCT-116, > 86.9 µM (inactive); with UACC-62 it was > 68.5 µM (inactive); in the assay with SF-539 it was > 100 µM (inactive). The GI50 was > 100 µM (inactive) with SF-268; > 73.3 µM (inactive) with HT-29; 10.6 µM (inactive) in the assay on T47D; 38.8 µM (inactive) with A498; > 100 µM (inactive) in the assay with NCI-H460; > 100 µM (inactive) in the assay on 786-0. Besides, the GI50 in the assay on MCF7 was > 100 µM (inactive); in the assay on MDA-MB-231 it was > 93.5 µM (inactive); in the assay with Hs-578T it was > 100 µM (inactive); in the assay with K562, 74.8 µM (inactive); in the assay with OVCAR-3, > 63.5 µM (inactive); in the assay with IGROV-1, 99.1 µM (inactive). The GI50 in the assay on DU-145 and with CCRF-CEM was > 100 µM (inactive) each time.
With `CN(CCCNC(=O)c1nn(-c2ccc(Cl)cc2Cl)c2c1Cc1ccccc1-2)CCCNC(=O)c1nn(-c2ccc(Cl)cc2Cl)c2c1Cc1ccccc1-2`, the GI50 was 1.57 µM (inactive) with OVCAR-5; 1.73 µM (inactive) in the assay with PC-3; 1.55 µM (inactive) with SNB-75; 1.7 µM (inactive) with HCT-116; 1.57 µM (inactive) in the assay on UACC-62; 1.19 µM (inactive) with SF-539. Also, the GI50 in the assay on SF-268 is 1.96 µM (inactive); with HT-29 it was 1.73 µM (inactive); in the assay on T47D, 1.92 µM (inactive); in the assay with A498 it was 1.71 µM (inactive); with NCI-H460 it was 1.65 µM (inactive); in the assay on 786-0, 1.67 µM (inactive). For the same compound, the GI50 with MCF7 was 1.55 µM (inactive); in the assay on MDA-MB-231, 1.87 µM (inactive); in the assay on Hs-578T it was 2.74 µM (inactive); in the assay on K562, 0.944 µM (active); with OVCAR-3 it was 1.73 µM (inactive); with IGROV-1 it was 1.76 µM (inactive). In addition, the GI50 in the assay on DU-145 was 1.77 µM (inactive); in the assay on CCRF-CEM it was 0.993 µM (active).
For `O=C(CCCCCCC(=O)Nc1cccnc1)NO` [PYROXAMIDE], the GI50 in the assay on OVCAR-5 was 4.14 µM (inactive); in the assay on PC-3, 7.26 µM (inactive); with SNB-75 it was 18.1 µM (inactive); in the assay on HCT-116, 3.54 µM (inactive); with UACC-62, 3.34 µM (inactive); in the assay with SF-539 it was 3.09 µM (inactive). For the same compound, the GI50 was 4.26 µM (inactive) with SF-268; 3.14 µM (inactive) in the assay on HT-29; 1.47 µM (inactive) with T47D; 11 µM (inactive) in the assay with A498; 2.82 µM (inactive) in the assay on NCI-H460; 7.21 µM (inactive) with 786-0. Moreover, the GI50 was 3.8 µM (inactive) in the assay with MCF7; > 100 µM (inactive) in the assay on MDA-MB-231; 5.15 µM (inactive) with Hs-578T; 4.26 µM (inactive) with K562; 2.86 µM (inactive) with OVCAR-3; 14.7 µM (inactive) in the assay with IGROV-1. Moreover, the GI50 was 3.71 µM (inactive) with DU-145 and 1.31 µM (inactive) in the assay with CCRF-CEM.
`COC(=O)NC(Nc1ccc(Cl)cc1Cl)(C(F)(F)F)C(F)(F)F`: the GI50 was > 100 µM (inactive) in the assay on OVCAR-5; 15.1 µM (inactive) in the assay on PC-3; > 100 µM (inactive) in the assay with SNB-75; 64.7 µM (inactive) with HCT-116; 5.2 µM (inactive) with UACC-62; 49 µM (inactive) in the assay with SF-539. The GI50 in the assay on SF-268 is 60.4 µM (inactive); in the assay on HT-29 it was > 100 µM (inactive); in the assay on T47D, 47 µM (inactive); in the assay on A498 it was 33.2 µM (inactive); in the assay on NCI-H460 it was 30 µM (inactive); with 786-0 it was > 100 µM (inactive). Also, the GI50 with MCF7 was > 100 µM (inactive); in the assay with MDA-MB-231 it was > 100 µM (inactive); in the assay with Hs-578T, > 100 µM (inactive); in the assay with K562, 2.85 µM (inactive); in the assay with OVCAR-3 it was 79.6 µM (inactive); in the assay on IGROV-1, 61.7 µM (inactive). The results for the GI50 in the assay with DU-145 and in the assay with CCRF-CEM were 35.3 µM (inactive) and 28.5 µM (inactive), respectively.
As for `COC(=O)[C@]1(Cc2ccc3ccccc3c2)CCCCCCN1C(=O)c1ccccc1`, the GI50 in the assay with OVCAR-5 is > 38 µM (inactive); in the assay on PC-3 it was > 22.4 µM (inactive); with SNB-75, 17.5 µM (inactive); in the assay with HCT-116, > 25.4 µM (inactive); in the assay on UACC-62, > 35.6 µM (inactive); in the assay with SF-539, > 39.6 µM (inactive). The GI50 in the assay on SF-268 is > 33.8 µM (inactive); with HT-29 it was > 28.2 µM (inactive); with T47D it was > 30.3 µM (inactive); with A498 it was > 36.1 µM (inactive); in the assay on NCI-H460, > 34.4 µM (inactive); with 786-0, > 37 µM (inactive). Also, the GI50 was > 32.2 µM (inactive) with MCF7; > 36.4 µM (inactive) with MDA-MB-231; 18.7 µM (inactive) with Hs-578T; > 22 µM (inactive) in the assay on K562; > 24.9 µM (inactive) in the assay with OVCAR-3; > 37.8 µM (inactive) with IGROV-1. The GI50 in the assay with DU-145 is > 43.6 µM (inactive); in the assay with CCRF-CEM it was > 23.9 µM (inactive).
Take `CC12CP(=O)(O)CC1C2(Cl)Cl` (stereo not given): the GI50 in the assay with OVCAR-5, in the assay on PC-3, in the assay on SNB-75, in the assay with HCT-116, in the assay on UACC-62 and with SF-539 was > 100 µM (inactive) in each case. The GI50 with SF-268, with HT-29, with T47D, in the assay on A498, in the assay with NCI-H460 and in the assay on 786-0 was > 100 µM (inactive) throughout. For the same compound, the GI50 with MCF7, with MDA-MB-231, in the assay with Hs-578T, in the assay on K562, with OVCAR-3 and in the assay with IGROV-1 was > 100 µM (inactive) each time. Moreover, the GI50 in the assay with DU-145 and in the assay with CCRF-CEM was > 100 µM (inactive) in each case.
As for `OC(C#Cc1ccccc1)(c1ccccc1)c1ccccc1`, the GI50 in the assay on OVCAR-5 is 30.5 µM (inactive); in the assay on PC-3, 31.9 µM (inactive); with SNB-75 it was 55.3 µM (inactive); with HCT-116, > 100 µM (inactive); with UACC-62, 35.4 µM (inactive); in the assay on SF-539 it was 77.1 µM (inactive). Further, the GI50 was 21.4 µM (inactive) in the assay with SF-268; 26.7 µM (inactive) in the assay on HT-29; 18.9 µM (inactive) in the assay with T47D; 27.1 µM (inactive) with A498; 20.9 µM (inactive) with NCI-H460; > 100 µM (inactive) in the assay on 786-0. The GI50 was 24 µM (inactive) in the assay with MCF7; 51.8 µM (inactive) with MDA-MB-231; 54.8 µM (inactive) with Hs-578T; 34.3 µM (inactive) in the assay on K562; 26.7 µM (inactive) in the assay with OVCAR-3; 43.7 µM (inactive) in the assay with IGROV-1. Moreover, the GI50 was 30.1 µM (inactive) in the assay with DU-145 and 11.6 µM (inactive) in the assay on CCRF-CEM.
As to `COC1C(O)C(C)OC(OC2C(Oc3cccc4c(O)c5c(=O)oc6ccc(C)c7c(=O)oc(c34)c5c67)OC(C)C(O)C2O)C1O` (stereo not given), the GI50 in the assay with OVCAR-5 was 4.56 µM (inactive); with PC-3 it was 4.04 µM (inactive); in the assay on SNB-75, 2.49 µM (inactive); with HCT-116 it was 0.731 µM (active); in the assay with UACC-62 it was 1.17 µM (inactive); in the assay on SF-539, 1.51 µM (inactive). For the same compound, the GI50 in the assay on SF-268 is 0.904 µM (active); in the assay with HT-29 it was 2.63 µM (inactive); with T47D it was 0.968 µM (active); in the assay with A498 it was 2.04 µM (inactive); in the assay with NCI-H460 it was 2.26 µM (inactive); in the assay on 786-0, 0.91 µM (active). Also, the GI50 is 0.757 µM (active) in the assay with MCF7; 1.67 µM (inactive) with MDA-MB-231; 2.38 µM (inactive) in the assay with Hs-578T; 0.804 µM (active) with K562; 2.34 µM (inactive) in the assay with OVCAR-3; 1.87 µM (inactive) with IGROV-1. For the same compound, the GI50 in the assay with DU-145 is 6.65 µM (inactive); in the assay on CCRF-CEM it was 0.836 µM (active).
As to `CC1CCC(=O)C(C(=O)CC2CC(=O)NC(=O)C2)C1` (stereo not given), the GI50 in the assay with OVCAR-5, in the assay with PC-3, with SNB-75, in the assay on HCT-116, in the assay on UACC-62 and with SF-539 was > 100 µM (inactive) each time. The GI50 with SF-268, with HT-29, with T47D, in the assay on A498, in the assay on NCI-H460 and in the assay on 786-0 was > 100 µM (inactive) each time. Further, the GI50 with MCF7, in the assay with MDA-MB-231, with Hs-578T, with K562, in the assay with OVCAR-3 and in the assay with IGROV-1 was > 100 µM (inactive) throughout. Further, the GI50 in the assay on DU-145 and in the assay on CCRF-CEM was > 100 µM (inactive) in each case.
